Molecules are shown by their SMILES.

What all share (assay type): biochemical, Dictyoglomus thermophilum
Assay [1] deals with T1, Xln-DT.
T1 construct: recombinant, pET-28a-xln-DT in E. coli BL21(DE3), heat treatment and Ni-NTA; ~55 kDa on SDS-PAGE
Description: pNP release at […] nm, Michaelis-Menten. The settings on record: 50 mM sodium phosphate pH 6.0, optimal temperature.

Assay [2] has as its system T1, Xln-DT. Description: xylose release, Michaelis-Menten. The settings on record: 0.2-10 g/L substrate. An excerpt:
xylose release, Michaelis-Menten on Xln-DT

Assay [3] relates to T1, Xln-DT. Description: glucose release, Michaelis-Menten. The settings on record: 0.2-10 g/L substrate. The source says: glucose release, Michaelis-Menten on Xln-DT

On to `O=[N+]([O-])c1ccc(O[C@@H]2O[C@@H](CO)[C@H](O)[C@H]2O)cc1` [pNPA], for which, in assay [1], the Michaelis-Menten constant (Km) is 1020 µM.
Still for that read-out and setting: with `O=[N+]([O-])c1ccc(O[C@@H]2O[C@H](CO)[C@@H](O)[C@H](O)[C@H]2O)cc1` [pNPG] the figure was 3670 µM.
As to `OC1OC[C@@H](O[C@@H]2OC[C@@H](O)[C@H](O)[C@H]2O)[C@H](O)[C@H]1O` (some centres unmarked) [X2, Xylobiose], the Michaelis constant (Km) in assay [2] came to 930 µM.
Take `O=[N+]([O-])c1ccc(O[C@@H]2OC[C@@H](O)[C@H](O)[C@H]2O)cc1` [pNPX]: the Km in assay [1] is 1660 µM.
Consider `OC[C@H]1O[C@@H](O[C@H]2[C@H](O)[C@@H](O)C(O)O[C@@H]2CO)[C@H](O)[C@@H](O)[C@@H]1O` (some centres unmarked) [Cellobiose], for which the Km in assay [3] stood at 11000 µM.

As a reminder, the Km is the substrate concentration at which the rate is half of its maximum.

The values are drawn from article PMC7882696, “Co-production of Xylooligosaccharides and Xylose From Poplar Sawdust by Recombinant Endo-1,4-β-Xylanase and β-Xylosidase Mixture Hydrolysis” (Frontiers in Bioengineering and Biotechnology, 2021).
